The target in one test is T1, CCK receptor (brain) (Cavia porcellus, UniProt H0VZC5).
T1 construct: the cortex was removed and homogenized in 25 mL ice-cold 0.32M sucrose; from tissue; host or cells: cortex of male Hartley guinea pigs, P2 membrane pellet
The test is described as follows: CCK Receptor Binding (Brain), inhibition of 125I-CCK-8 binding. The arrangement: species or system guinea pig (male Hartley). To be noted: guinea pig cortex membranes; 50 pM 125I-CCK-8; pH 6.5, 25° C., 2 hours. How it is done: CCK-8 sulphated was radiolabelled and the binding was performed according to the description for the pancreas method with minor modifications.
Male Hartley guinea pigs (300-500 g) were sacrificed by decapitation and the cortex was removed and homogenized in 25 mL ice-cold 0.32M sucrose. The homogenates were centrifuged at 1000 g for 10 minutes and the resulting supernatant was recentrifuged at 20,000 g for 20 minutes. The P2 pellet was resuspended in binding assay buffer (20 mM HEPES, 5 mM MgCl2, 0.25 mg/ml bacitracin, 1 mM EGTA pH 6.5 at 25° C.), using a Teflon (trademark) homogenizer (5 strokes at 500 rpm) to give a final concentration of 10 mg original wet weight/1.2 ml buffer. For the binding assay, 50 μl of buffer (for total binding) or unlabelled CCK-8 sulphated to give a final concentration of 1 μM (for nonspecific binding) or the compounds of Formula I (for determination of inhibition of ^125 I-CCK-8 binding) and 50 μl of 500 pM ^125 I-CCK-8 (i.e. final concentration of 50 pM) were added to 400 μl of the membrane suspensions in microfuge tubes. All assays were run in duplicate. The reaction mixtures were incubated at 25° C. for 2 hours and then the reaction was terminated by rapid filtration (Brandell 24 well cell harvester) on Whatman GF/C filters with 3×5 ml washes of cold 100 mM NaCl. The radioactivity on the filters was counted with a LKB gamma counter. […]

The target in another test is T2, CCK receptor (pancreas) (Rattus norvegicus, UniProt P30551).
T2 construct: The whole pancreas was dissected free of fat tissue and was homogenized; from tissue; host or cells: whole pancreas of male Sprague-Dawley rats, membrane homogenate
T2 sequence (P30551 1-444): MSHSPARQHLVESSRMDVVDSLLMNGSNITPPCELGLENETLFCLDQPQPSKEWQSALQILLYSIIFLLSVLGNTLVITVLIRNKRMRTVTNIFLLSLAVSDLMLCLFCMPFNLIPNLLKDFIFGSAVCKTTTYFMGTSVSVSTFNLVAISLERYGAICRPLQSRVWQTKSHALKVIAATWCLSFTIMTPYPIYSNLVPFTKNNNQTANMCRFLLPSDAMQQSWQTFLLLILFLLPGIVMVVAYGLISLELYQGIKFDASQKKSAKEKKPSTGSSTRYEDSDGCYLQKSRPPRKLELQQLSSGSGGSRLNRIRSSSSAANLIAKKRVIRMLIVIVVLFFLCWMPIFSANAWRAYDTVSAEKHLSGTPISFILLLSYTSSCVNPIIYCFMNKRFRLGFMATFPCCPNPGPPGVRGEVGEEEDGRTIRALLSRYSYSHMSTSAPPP
Kind of test: CCK Receptor Binding (Pancreas), inhibition of 125I-CCK-8 binding. The arrangement: species or system rat (male Sprague-Dawley). To be noted: rat pancreas membranes; 50 pM 125I-CCK-8; pH 6.5, 25° C., 2 hours. The protocol: CCK-8 sulphated was radiolabelled with ^125 I-Bolton Hunter reagent (2000 Ci/mmole). Receptor binding was performed according to Chang and Lotti (Proc. Natl. Acad. Sci. 83, 4923-4926, 1986) with minor modifications.
Male Sprague-Dawley rats (150-200 g) were sacrificed by decapitation. The whole pancreas was dissected free of fat tissue and was homogenized in 25 volumes of ice-cold 10 mM N-2-hydroxyethyl-piperazine-N'-2-ethane sulphonic acid (HEPES) buffer with 0.1% soya bean trypsin inhibitor (pH 7.4 at 25° C.) with a Kinematica Polytron. The homogenates were centrifuged at 47,800 g for 10 min. Pellets were resuspended in 10 volumes of binding assay buffer (20mM (HEPES)), 1 mM ethylene glycol-bis-(β-aminoethylether-N,N'-tetraacetic acid) (EGTA), 5 mM MgCl2, 150 mM NaCl, bacitracin 0.25 mg/ml, soya bean trypsin inhibitor 0.1 mg/ml, and bovine serum albumin 2 mg/ml pH 6.5 at 25° C.) using a Teflon (trademark) homogenizer, 15 strokes at 500 rpm. The homogenate was further diluted in binding assay buffer to give a final concentration of 0.5 mg original wet weight/1 ml buffer. […] The radioactivity on the filters was counted with a LKB gamma counter. […]

T1 sequence (H0VZC5 entry or part of it): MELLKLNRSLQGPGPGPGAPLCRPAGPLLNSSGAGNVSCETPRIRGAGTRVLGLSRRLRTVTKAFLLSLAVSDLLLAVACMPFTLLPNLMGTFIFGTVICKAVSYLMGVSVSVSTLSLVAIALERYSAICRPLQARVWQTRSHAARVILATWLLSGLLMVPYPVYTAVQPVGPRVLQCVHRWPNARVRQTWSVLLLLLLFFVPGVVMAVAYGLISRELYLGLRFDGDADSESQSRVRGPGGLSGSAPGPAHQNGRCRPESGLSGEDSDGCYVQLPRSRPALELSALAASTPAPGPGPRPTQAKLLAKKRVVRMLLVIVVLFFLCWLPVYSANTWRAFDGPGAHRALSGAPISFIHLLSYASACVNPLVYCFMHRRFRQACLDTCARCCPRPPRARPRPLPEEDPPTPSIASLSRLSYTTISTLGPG

The term IC50 denotes the concentration that inhibits the measured activity by half. A low value points to higher potency. In the case of `CC(C)CN1C(=O)C(NC(=O)Nc2cccc(-c3nn[nH]n3)c2)N=C(c2cc[nH]c(=O)c2)c2ccccc21` (racemic) [Example 2, N-[3(R,S)-2,3-Dihydro-1-(2-methylpropyl)-2-oxo-5-(2-oxo-1,2-dihydropyridin-4-yl)-1H-1,4-benzodiazepin-3-yl]-N'-[3-(tetrazol-5-yl)phenyl]urea], the IC50 on CCK receptor (brain) was 23 nM; on CCK receptor (pancreas), 3380 nM.

On to `CC(C)CN1C(=O)C(NC(=O)Nc2cccc(-c3nn[nH]n3)c2)N=C(c2ccc(=O)[nH]c2)c2ccccc21` (racemic) [Example 1, N-[3(R,S)-2,3-Dihydro-1-(2-methylpropyl)-2-oxo-5-(6-oxo-1,6-dihydropyridin-3-yl)-1H-1,4-benzodiazepin-3-yl]-N'-[3-(tetrazol-5-yl)phenyl]urea], for which the figures for the IC50 at CCK receptor (brain) and at CCK receptor (pancreas) were 19.2 nM and 2680 nM, respectively.

Source of the values: patent US5478933A, “Benzodiazepine derivatives and their use as antagonists of cholecystokinin and/or gastrin receptors” (Merck Sharpe & Dohme Ltd., priority 1994, dated 1995).
